Reference: PubChem BioAssay AID1963866 (Molecular Pharmacology Branch, DTP, NCI, 2024)

Test system: PDC KRAS tumor spheroids with HUVEC/MSC, viability
Assay: Anticancer human tumor 349418-098-R-PDC patient-derived lung adenocarcinoma cell line growth inhibition [KRAS2]
Details: for IC50: curve of first compound; for viability, T/C: stronger effect = lower value
From the text: Multicellular complex tumor spheroid response to RAS pathway inhibitors in combination with a targeted agents in patient-derived cell lines with oncogenic KRAS variants from multiple cancer types
A high-throughput screen of multi-cell type tumor spheroids was designed to identify active combinations of targeted small molecules and KRAS pathway inhibitors. Complex spheroids include a stromal component modeled by human endothelial cells (HUVEC) and fibroblasts modeled by human mesenchymal stem cells (MSCs). The concentration ranges selected for each drug and investigational agent were based upon clinically achievable concentrations if the clinical Cmax of the agent was known.
Compounds. The drugs and investigational agents: BI-3406 (NSC825286), BAY-293 (NSC824723), batoprotafib (TNO155; NSC825523), sotorasib (AMG 510; NSC818433), MRTX1257 (NSC819558), elimusertib (BAY 1895344; NSC800525), molibresib (GSK525762; NSC774829), temuterkib (LY3214996; NSC803410), venetoclax (NSC766270), alisertib (NSC759677), olaparib (NSC753686), talazoparib (NSC767125), erdafitinib (NSC781556), ipatasertib (NSC767898), cabozantinib (NSC761068), nintedanib (NSC756659), abemaciclib (NSC768073), docetaxel (NSC628503), trametinib (NSC758246), and sapanisertib (NSC764658) were obtained from the National Cancer Institute (NCI) Developmental Therapeutics Program Chemical Repository. The FDA-approved anticancer drug set is available from the Developmental Therapeutics Program. […] The stock solutions were prepared in dimethyl sulfoxide (DMSO, Sigma-Aldrich, St. Louis, MO, cat. D2650) at 800-fold the tested concentration and stored at -70 degrees C prior to their use. All drugs and investigational agents were tested over a range starting from a high concentration at or near the clinical Cmax and decreasing in half-log increments. If the clinical Cmax for an agent had not been determined, the highest concentration tested was 10 microM.
Cell Culture. All cells were maintained in an incubator at 37 degrees C and 5% CO2 with 95% humidity. The PDC lines were cultured according to standard operating procedures established by the NCI PDMR (https://pdmr.cancer.gov/sops/default.htm). Briefly, all PDCs were thawed and cultured in Matrigel-coated flasks prepared with a working solution of 1X Ham's F-12 nutrient mix, without supplementation (Invitrogen, Waltham, MA, cat. 11765054), 100 U/mL penicillin-streptomycin (Invitrogen, cat. 15140122), and 2.5% Matrigel (Corning Inc., Corning, NY, cat. 354248) for the first three passages. All PDCs were cultured in complete DMEM/F-12 media containing advanced DMEM/F-12 (Invitrogen, cat. 12634028), 4.9% defined fetal bovine serum, heat inactivated (HyClone Laboratories Inc., Logan, UT, cat. SH30070.03HI), 389 ng/mL hydrocortisone (Sigma-Aldrich, cat. H4001), 9.7 ng/mL human EGF recombinant protein (Invitrogen, cat. PHG0313), 23.4 microg/mL adenine (Sigma-Aldrich, cat. A2786), 97.3 U/mL penicillin-streptomycin (Invitrogen, cat. 15140122), 1.9 mM L-glutamine (Invitrogen, cat. 25030081), and 9.7 microM Y-27632 dihydrochloride (Tocris Bioscience, Bristol, United Kingdom, cat. 1254). The PDCs were cultured in complete DMEM/F12 media without 9.7 microM Y-27632 dihydrochloride for at least two passages prior to the screen. The established cell line HOP-62 was cultured in RPMI 1640 medium, HEPES (Invitrogen, cat. 22400105) with 10% defined fetal bovine serum (HyClone Laboratories Inc., cat. SH30070.03) and 2 mM L-glutamine (Invitrogen, cat. 25030081). The pooled donor HUVEC were cultured in endothelial cell growth medium 2 (PromoCell, Heidelberg, Germany, cat. C-22011) and the hMSC were cultured in mesenchymal stem cell growth medium 2 (PromoCell, cat. C-28009). For all experiments, HUVEC and hMSC were used at passages </=5, while the malignant cell lines were used at passages </=15. […]

[1] = second compound 0.1 µM, first compound 0.0316 µM
[2] = second compound 0.1 µM, first compound 0.1 µM
[3] = second compound 0.316 µM, first compound 0.0316 µM
[4] = second compound 0.316 µM, first compound 0.1 µM
[5] = second compound 1 µM, first compound 0.0316 µM
[6] = second compound 1 µM, first compound 0.1 µM
[7] = second compound 3.16 µM, first compound 0.0316 µM
[8] = second compound 3.16 µM, first compound 0.1 µM
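Also: spheroids exposed to compounds for seven days before readout.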

CN(C)C/C=C/C(=O)Nc1cc2c(Nc3ccc(F)c(Cl)c3)ncnc2cc1O[C@H]1CCOC1 + C=CC(=O)N1CCN(c2nc(OCC3CCCN3C)nc3c2CCN(c2cccc4cccc(C)c24)C3)CC1CC#N was tested, and the IC50 (second compound 0.0316 µM) was > 0.1 µM, the IC50 (second compound 0.1 µM) was > 0.1 µM and the IC50 (second compound 0.316 µM) was > 0.1 µM. For the same compound, the IC50 (second compound 1 µM) was > 0.1 µM, the IC50 (second compound 3.16 µM) was < 0.000316 µM and the viability, T/C (second compound 0.0316 µM, first compound 0.000316 µM) was 102%. For the same compound, the viability, T/C (second compound 0.0316 µM, first compound 0.001 µM) was 101%, the viability, T/C (second compound 0.0316 µM, first compound 0.00316 µM) was 85% and the viability, T/C (second compound 0.0316 µM, first compound 0.01 µM) was 105%. The viability, T/C (second compound 0.0316 µM, first compound 0.0316 µM) was 102%, the viability, T/C (second compound 0.0316 µM, first compound 0.1 µM) was 87.2% and the viability, T/C (second compound 0.1 µM, first compound 0.000316 µM) was 101%. It also gave a viability, T/C (second compound 0.1 µM, first compound 0.001 µM) of 109%, a viability, T/C (second compound 0.1 µM, first compound 0.00316 µM) of 86.3% and a viability, T/C (second compound 0.1 µM, first compound 0.01 µM) of 92.9%. For the same compound, the viability, T/C [1] was 83.8%, the viability, T/C [2] was 83.9% and the viability, T/C (second compound 0.316 µM, first compound 0.000316 µM) was 99.9%. The viability, T/C (second compound 0.316 µM, first compound 0.001 µM) was 99.8%, the viability, T/C (second compound 0.316 µM, first compound 0.00316 µM) was 94.6% and the viability, T/C (second compound 0.316 µM, first compound 0.01 µM) was 94.9%. For the same compound, the viability, T/C [3] was 82.1%, the viability, T/C [4] was 84.4% and the viability, T/C (second compound 1 µM, first compound 0.000316 µM) was 84.5%. For the same compound, the viability, T/C (second compound 1 µM, first compound 0.001 µM) was 75.2%, the viability, T/C (second compound 1 µM, first compound 0.00316 µM) was 65.9% and the viability, T/C (second compound 1 µM, first compound 0.01 µM) was 69.4%. For the same compound, the viability, T/C [5] was 77.4%, the viability, T/C [6] was 58.3% and the viability, T/C (second compound 3.16 µM, first compound 0.000316 µM) was 0.17%. The viability, T/C (second compound 3.16 µM, first compound 0.001 µM) was 0.19%, the viability, T/C (second compound 3.16 µM, first compound 0.00316 µM) was 0.17% and the viability, T/C (second compound 3.16 µM, first compound 0.01 µM) was 0.17%. The viability, T/C [7] was 1.41% and the viability, T/C [8] was 0.2%.
CC1(C)CCC(CN2CCN(c3ccc(C(=O)NS(=O)(=O)c4ccc(NCC5CCOCC5)c([N+](=O)[O-])c4)c(Oc4cnc5[nH]ccc5c4)c3)CC2)=C(c2ccc(Cl)cc2)C1 + CNCc1ccccc1-c1csc(C(C)Nc2nc(C)nc3cc(OC)c(OC)cc23)c1 showed an IC50 (second compound 0.1 µM) of 1.79 µM, an IC50 (second compound 0.316 µM) of 1.69 µM and an IC50 (second compound 1 µM) of 1.28 µM. For the same compound, the IC50 (second compound 3.16 µM) was < 0.0316 µM, the IC50 (second compound 10 µM) was < 0.0316 µM and the viability, T/C [1] was 101%. It also gave a viability, T/C [2] of 99.7%, a viability, T/C (second compound 0.1 µM, first compound 0.316 µM) of 94.6% and a viability, T/C (second compound 0.1 µM, first compound 1 µM) of 89.7%. The viability, T/C (second compound 0.1 µM, first compound 3.16 µM) was 11.3%, the viability, T/C (second compound 0.1 µM, first compound 10 µM) was 5.21% and the viability, T/C [3] was 97%. It also gave a viability, T/C [4] of 96.4%, a viability, T/C (second compound 0.316 µM, first compound 0.316 µM) of 87% and a viability, T/C (second compound 0.316 µM, first compound 1 µM) of 82.6%. For the same compound, the viability, T/C (second compound 0.316 µM, first compound 3.16 µM) was 11.5%, the viability, T/C (second compound 0.316 µM, first compound 10 µM) was 3.91% and the viability, T/C [5] was 74.1%. It also gave a viability, T/C [6] of 66.9%, a viability, T/C (second compound 1 µM, first compound 0.316 µM) of 72% and a viability, T/C (second compound 1 µM, first compound 1 µM) of 61.6%. For the same compound, the viability, T/C (second compound 1 µM, first compound 3.16 µM) was 6.96%, the viability, T/C (second compound 1 µM, first compound 10 µM) was 2.51% and the viability, T/C [7] was 0.13%. The viability, T/C [8] was 0.14%, the viability, T/C (second compound 3.16 µM, first compound 0.316 µM) was 0.11% and the viability, T/C (second compound 3.16 µM, first compound 1 µM) was 0.12%. The viability, T/C (second compound 3.16 µM, first compound 3.16 µM) was 0.12%, the viability, T/C (second compound 3.16 µM, first compound 10 µM) was 0.15% and the viability, T/C (second compound 10 µM, first compound 0.0316 µM) was 0.11%. It also gave a viability, T/C (second compound 10 µM, first compound 0.1 µM) of 0.12%, a viability, T/C (second compound 10 µM, first compound 0.316 µM) of 0.1% and a viability, T/C (second compound 10 µM, first compound 1 µM) of 0.09%. The viability, T/C (second compound 10 µM, first compound 3.16 µM) was 0.08% and the viability, T/C (second compound 10 µM, first compound 10 µM) was 0.15%.
